Blank lines part the entries; values can stand above or below the compound they belong to. Where a SMILES comes first, the peptide text is derived from it. Bridges are numbered along the chain shown (N, C = ends). [ ]: non-standard residue; d: D form. The star is where a group is joined. X5 = O=C(O)CN1CCN(CC(=O)O)CCN(CC(=O)N[C@@H](CS(=O)(=O)O)C(=O)N[C@@H](CCCCNC(=O)CCCc2ccc(Cl)cc2)C(=O)*)CCN(CC(=O)O)CC1; X1 = O=C(O)CN1CCN(CC(=O)O)CCN(CC(=O)N[C@@H](CS(=O)(=O)O)C(=O)N[C@@H](CCCCNC(=O)CCCc2ccc(I)cc2)C(=O)*)CCN(CC(=O)O)CC1; 2Nal = N[C@@H](Cc1ccc2ccccc2c1)C(=O)O; Lys(iPr) = CC(C)NCCCC[C@H](N)C(=O)O
Experiment: in vivo
Design: species or system mice
Settings: male, mouse, iv, total radioactivity
Method: The Z138 Mantle cell lymphoma cell line was purchased from the American Type Culture Collection (ATCC©CRL-3001). The cell line was cultured in a 5% CO2 atmosphere at 37° C. in a humidified incubator with IMDM medium supplemented with 10% fetal bovine serum, 100 I.U./mL penicillin, and 100 μg/mL streptomycin.
[^68Ga]GaCl3 was eluted from an iThemba Labs generator with a total of 4 mL of 0.1 M HCl. The eluted [^68Ga]GaCl3 solution was added to 2 mL of concentrated HCl. This radioactive mixture was then added to a DGA resin column and washed with 3 mL of 5 M HCl. The column was then dried with air and the [^68Ga]GaCl3 (0.10-0.50 GBq) was eluted with 0.5 mL of water into a vial containing a solution of the unlabeled precursor (25 μg) in 0.7 mL HEPES buffer (2 M, pH 5.3). The reaction mixture was heated in a microwave oven (Danby; DMW7700WDB) for 1 min at power setting 2. The mixture was purified by semi-prep HPLC and quality control was performed via analytical HPLC with the co-injection of the unlabeled standard with a one-twelfth of the radiotracer. Radiochemical yields (decay-corrected) were >50% and radiochemical purities were >95%.
Animal experiments were performed in accordance with guidelines established by the Canadian Council on Animal Care, under a research protocol approved by the Animal Ethics Committee of the University of British Columbia. For all studies, male NOD.Cg-Rag1tm1Momll2rgtm1Wjl/SzJ (NRG) mice were used and cells injected in a 100 μL solution of 1:1 ratio of PBS/Matrigel. For preclinical imaging and biodistribution studies, 5×10^6 cells of Z138, cells were subcutaneously inoculated on the left or right flank and tumors were grown to a size of 200-300 mm^3. […]
Under isoflurane anesthesia (2-2.5% isoflurane in 2 L/min 02), mice were injected intravenously with [^68Ga]Ga-BL34L6 or [^68Ga]Ga-BL34L7. Mice were euthanized by CO2 inhalation after anesthesia with isoflurane. Tissues were harvested, washed in PBS, patted dry, weighed, and then assayed radioactivity on a gamma counter. Counted radioactivities were converted to percentage injected dose per gram of tissue (% ID/g) using a calibration curve.

[1] = NOD.Cg-Rag1tm1Mom Il2rgtm1Wjl/SzJ (NRG), Biodistribution: Adrenals
[2] = NOD.Cg-Rag1tm1Mom Il2rgtm1Wjl/SzJ (NRG), Biodistribution: Bone
[3] = NOD.Cg-Rag1tm1Mom Il2rgtm1Wjl/SzJ (NRG), Biodistribution: Brain
[4] = NOD.Cg-Rag1tm1Mom Il2rgtm1Wjl/SzJ (NRG), Biodistribution: Heart
[5] = NOD.Cg-Rag1tm1Mom Il2rgtm1Wjl/SzJ (NRG), Biodistribution: Kidneys
[6] = NOD.Cg-Rag1tm1Mom Il2rgtm1Wjl/SzJ (NRG), Biodistribution: Liver
[7] = NOD.Cg-Rag1tm1Mom Il2rgtm1Wjl/SzJ (NRG), Biodistribution: Lungs
[8] = NOD.Cg-Rag1tm1Mom Il2rgtm1Wjl/SzJ (NRG), Biodistribution: Muscle
[9] = NOD.Cg-Rag1tm1Mom Il2rgtm1Wjl/SzJ (NRG), Biodistribution: Pancreas
[10] = NOD.Cg-Rag1tm1Mom Il2rgtm1Wjl/SzJ (NRG), Biodistribution: Small Intestine
[11] = NOD.Cg-Rag1tm1Mom Il2rgtm1Wjl/SzJ (NRG), Biodistribution: Spleen
[12] = NOD.Cg-Rag1tm1Mom Il2rgtm1Wjl/SzJ (NRG), Biodistribution: Z138 Tumor
[13] = NOD.Cg-Rag1tm1Mom Il2rgtm1Wjl/SzJ (NRG), Ratio Tumor-to-Blood
[14] = NOD.Cg-Rag1tm1Mom Il2rgtm1Wjl/SzJ (NRG), Ratio Tumor-to-Muscle
[15] = NOD.Cg-Rag1tm1Momll2rgtm1Wjl/SzJ (NRG), Biodistribution: Blood
[16] = NOD.Cg-Rag1tm1Momll2rgtm1Wjl/SzJ (NRG), Biodistribution: Stomach
[17] = NOD.Cg-Rag1tm1Momll2rgtm1Wjl/SzJ (NRG), Biodistribution: Testes
[18] = NOD.Cg-Rag1tm1Momll2rgtm1Wjl/SzJ (NRG), Ratio Tumor-to-Bone
[19] = NOD.Cg-Rag1tm1Momll2rgtm1Wjl/SzJ (NRG), Ratio Tumor-to-Kidney
[20] = NOD.Cg-Rag1tm1Momll2rgtm1Wjl/SzJ (NRG), Ratio Tumor-to-Muscle
[21] = NOD.Cg-Rag1tm1Momll2rgtm1Wjl/SzJ (NRG), Ratio Tumor-to-Pancreas
[22] = NOD.Cg-Rag1tm1Mom Il2rgtm1Wjl/SzJ (NRG), Biodistribution: Blood
[23] = NOD.Cg-Rag1tm1Mom Il2rgtm1Wjl/SzJ (NRG), Biodistribution: Stomach
[24] = NOD.Cg-Rag1tm1Mom Il2rgtm1Wjl/SzJ (NRG), Biodistribution: Testes
[25] = NOD.Cg-Rag1tm1Mom Il2rgtm1Wjl/SzJ (NRG), Ratio Tumor-to-Bone
[26] = NOD.Cg-Rag1tm1Mom Il2rgtm1Wjl/SzJ (NRG), Ratio Tumor-to-Kidney
[27] = NOD.Cg-Rag1tm1Mom Il2rgtm1Wjl/SzJ (NRG), Ratio Tumor-to-Pancreas

tissue uptake at 24 h [1]: 2.44 %ID/g
tissue uptake at 72 h [1]: 1.8 %ID/g
tissue uptake at 120 h [1]: 1.62 %ID/g
tissue uptake at 24 h [2]: 0.71 %ID/g
tissue uptake at 72 h [2]: 0.42 %ID/g
tissue uptake at 120 h [2]: 0.29 %ID/g
tissue uptake at 24 h [3]: 0.18 %ID/g
tissue uptake at 72 h [3]: 0.07 %ID/g
tissue uptake at 120 h [3]: 0.05 %ID/g
tissue uptake at 24 h [4]: 1.8 %ID/g
tissue uptake at 72 h [4]: 1.1 %ID/g
tissue uptake at 120 h [4]: 0.76 %ID/g
tissue uptake at 24 h [5]: 2.67 %ID/g
tissue uptake at 72 h [5]: 1.19 %ID/g
tissue uptake at 120 h [5]: 0.75 %ID/g
tissue uptake at 24 h [6]: 1.99 %ID/g
tissue uptake at 72 h [6]: 1.1 %ID/g
tissue uptake at 120 h [6]: 0.45 %ID/g
tissue uptake at 24 h [7]: 4.88 %ID/g
tissue uptake at 72 h [7]: 2.86 %ID/g
tissue uptake at 120 h [7]: 1.91 %ID/g
tissue uptake at 24 h [8]: 0.76 %ID/g
tissue uptake at 72 h [8]: 0.38 %ID/g
tissue uptake at 120 h [8]: 0.21 %ID/g
tissue uptake at 24 h [9]: 1.05 %ID/g
tissue uptake at 72 h [9]: 0.45 %ID/g
tissue uptake at 120 h [9]: 0.53 %ID/g
tissue uptake at 24 h [10]: 0.79 %ID/g
tissue uptake at 72 h [10]: 0.38 %ID/g
tissue uptake at 120 h [10]: 0.21 %ID/g
tissue uptake at 24 h [11]: 2.13 %ID/g
tissue uptake at 72 h [11]: 1.96 %ID/g
tissue uptake at 120 h [11]: 1.86 %ID/g
tissue uptake at 24 h [12]: 26.6 %ID/g
tissue uptake at 72 h [12]: 35 %ID/g
tissue uptake at 120 h [12]: 41.2 %ID/g
tissue to tissue ratio at 24 h [13]: 3.42
tissue to tissue ratio at 72 h [13]: 12.3
tissue to tissue ratio at 120 h [13]: 25
tissue to tissue ratio at 72 h [14]: 91.8
tissue uptake at 24 h [15]: 7.82 %ID/g
tissue uptake at 72 h [15]: 2.84 %ID/g
tissue uptake at 120 h [15]: 1.6 %ID/g
tissue uptake at 24 h [16]: 0.75 %ID/g
tissue uptake at 72 h [16]: 0.32 %ID/g
tissue uptake at 120 h [16]: 0.24 %ID/g
tissue uptake at 24 h [17]: 2.64 %ID/g
tissue uptake at 72 h [17]: 1.47 %ID/g
tissue uptake at 120 h [17]: 2.04 %ID/g
tissue to tissue ratio at 24 h [18]: 28.3
tissue to tissue ratio at 72 h [18]: 53.7
tissue to tissue ratio at 120 h [18]: 55.9
tissue to tissue ratio at 24 h [19]: 10.1
tissue to tissue ratio at 72 h [19]: 29.3
tissue to tissue ratio at 120 h [19]: 54.2
tissue to tissue ratio at 24 h [20]: 35.8
tissue to tissue ratio at 120 h [20]: 190
tissue to tissue ratio at 24 h [21]: 25.9
tissue to tissue ratio at 72 h [21]: 71.7
tissue to tissue ratio at 120 h [21]: 122
Structure (SMILES): CC(C)NCCCC[C@H](NC(=O)[C@H]1CCC(=O)N[C@@H](CCCCNC(=O)[C@H](CCCCNC(=O)CCCc2ccc(I)cc2)NC(=O)[C@H](CS(=O)(=O)O)NC(=O)CN2CCN(CC(=O)O)CCN(CC(=O)O)CCN(CC(=O)O)CC2)C(=O)N[C@@H](Cc2ccc(O)cc2)C(=O)N[C@@H](CCCCNC(C)C)C(=O)N[C@H](CCCNC(=N)N)C(=O)N[C@@H](Cc2ccc3ccccc3c2)C(=O)N[C@H](C)C(=O)N1)C(N)=O [[^177Lu]Lu-BL34L11, metal not drawn] (K(X1)Y[Lys(iPr)][dR][2Nal][dA][dE][Lys(iPr)]-NH2; lactam N-7)

tissue uptake at 1 h [1]: 1.63 %ID/g
tissue uptake at 3 h [1]: 0.7 %ID/g
tissue uptake at 1 h [22]: 7.27 %ID/g
tissue uptake at 3 h [22]: 2.7 %ID/g
tissue uptake at 1 h [2]: 2.65 %ID/g
tissue uptake at 3 h [2]: 2.01 %ID/g
tissue uptake at 1 h [3]: 0.11 %ID/g
tissue uptake at 3 h [3]: 0.06 %ID/g
tissue uptake at 1 h [4]: 1.66 %ID/g
tissue uptake at 3 h [4]: 0.67 %ID/g
tissue uptake at 1 h [5]: 3.56 %ID/g
tissue uptake at 3 h [5]: 2.2 %ID/g
tissue uptake at 1 h [6]: 2.61 %ID/g
tissue uptake at 3 h [6]: 2.33 %ID/g
tissue uptake at 1 h [7]: 5.9 %ID/g
tissue uptake at 3 h [7]: 2.85 %ID/g
tissue uptake at 1 h [8]: 0.61 %ID/g
tissue uptake at 3 h [8]: 0.32 %ID/g
tissue uptake at 1 h [9]: 0.76 %ID/g
tissue uptake at 3 h [9]: 0.31 %ID/g
tissue uptake at 1 h [10]: 0.86 %ID/g
tissue uptake at 3 h [10]: 0.41 %ID/g
tissue uptake at 1 h [11]: 2.48 %ID/g
tissue uptake at 3 h [11]: 2.05 %ID/g
tissue uptake at 1 h [23]: 0.26 %ID/g
tissue uptake at 3 h [23]: 0.16 %ID/g
tissue uptake at 1 h [24]: 1.16 %ID/g
tissue uptake at 3 h [24]: 0.68 %ID/g
tissue uptake at 1 h [12]: 10.1 %ID/g
tissue uptake at 3 h [12]: 15.2 %ID/g
tissue to tissue ratio at 1 h [13]: 1.38
tissue to tissue ratio at 3 h [13]: 5.74
tissue to tissue ratio at 1 h [25]: 6.11
tissue to tissue ratio at 3 h [25]: 19.3
tissue to tissue ratio at 1 h [26]: 2.83
tissue to tissue ratio at 3 h [26]: 6.92
tissue to tissue ratio at 1 h [14]: 16.8
tissue to tissue ratio at 3 h [14]: 50.4
tissue to tissue ratio at 1 h [27]: 13.6
tissue to tissue ratio at 3 h [27]: 50.7
Structure (SMILES): CC(C)NCCCC[C@H](NC(=O)[C@H]1CCC(=O)N[C@@H](CCCCNC(=O)[C@H](CCCCNC(=O)CCCc2ccc(Cl)cc2)NC(=O)[C@H](CS(=O)(=O)O)NC(=O)CN2CCN(CC(=O)O)CCN(CC(=O)O)CCN(CC(=O)O)CC2)C(=O)N[C@@H](Cc2ccc(O)cc2)C(=O)N[C@@H](CCCCNC(C)C)C(=O)N[C@H](CCCNC(=N)N)C(=O)N[C@@H](Cc2ccc3ccccc3c2)C(=O)N[C@H](C)C(=O)N1)C(N)=O [[^68Ga]Ga-BL34L16, metal not drawn] (K(X5)Y[Lys(iPr)][dR][2Nal][dA][dE][Lys(iPr)]-NH2; lactam N-7)

From patent US20250242064A1, “CXCR4-TARGETING COMPOUNDS, AND METHODS OF MAKING AND USING THE SAME” (PROVINCIAL HEALTH SERVICES AUTHORITY, priority 2022, published 2025)
